MIC data for seven molecules are collected here from US9051333B2, “6,7-dihydroimidazo [2,1-b] [1,3]oxazine bactericides” (OTSUKA PHARMACEUTICAL CO., LTD., priority 2011, dated 2015).

Converted amounts (≈) assume the structure as drawn.

One experiment deals with Mycobacterium tuberculosis (M. tuberculosis kurono). Kind of experiment: Antimicrobial Assay (Agar Plate Dilution Method), M. tuberculosis kurono. It counts as cell-based. To be noted: 336 h, M. tuberculosis kurono, 7H11 agar medium, cultured at 37° C. for 14 days, read-out: Minimum Inhibitory Concentration.
`O=[N+]([O-])c1cn2c(n1)O[C@@H](COc1ccc(N3CCC(Cc4ccc(Oc5ccc(OC(F)(F)F)cc5)cc4)CC3)cc1)CC2` [Example 228, (R)-2-nitro-7-(4-{4-[4-(4-trifluoromethoxyphenoxy)benzyl]piperidin-1-yl}phenoxymethyl)-6,7-dihydro-5H-imidazo[2,1-b][1,3]oxazine]: the MIC was 0.8 ng/mL (≈ 1.28 nM).

As to `CC1(COc2ccc(N3CCN(C/C=C/c4ccc(OC(F)(F)F)cc4)CC3)cc2)CCn2cc([N+](=O)[O-])nc2O1` (centres unmarked) [Example 411, 7-methyl-2-nitro-7-(4-{4-[(E)-3-(4-trifluoromethoxyphenyl)allyl]piperazin-1-yl}phenoxymethyl)-6,7-dihydro-5H-imidazo[2,1-b][1,3]oxazine], the MIC stood at 6 ng/mL (≈ 10.5 nM).

On to `O=[N+]([O-])c1cn2c(n1)O[C@@H](COc1ccc(N3CCN(CC4CCC(C(F)(F)F)CC4)CC3)cc1)CC2` (stereo partly drawn) [Example 414, (R)-2-nitro-7-{4-[4-(4-trifluoromethyl-cyclohexylmethyl)piperazin-1-yl]phenoxymethyl}-6,7-dihydro-5H-imidazo[2,1-b][1,3]oxazine], for which the MIC was determined as 6 ng/mL (≈ 11.5 nM).

`O=[N+]([O-])c1cn2c(n1)O[C@@H](COc1ccc(N3CCC(C4CCN(Cc5ccc(C(F)(F)F)cc5)CC4)CC3)cc1)CC2` [Example 415, (R)-2-nitro-7-{4-[1′-(4-trifluoromethylbenzyl)-4,4′-bipiperidin-1-yl]phenoxymethyl}-6,7-dihydro-5H-imidazo[2,1-b][1,3]oxazine]: the MIC was 1.5 ng/mL (≈ 2.5 nM).

In the case of `O=[N+]([O-])c1cn2c(n1)O[C@@H](COc1ccc(N3CCC(Oc4ccc(SC(F)(F)F)cc4)CC3)cc1)CC2` [Example 446, (R)-2-nitro-7-{4-[4-(4-trifluoromethylsulfanylphenoxy)piperidin-1-yl]phenoxymethyl}-6,7-dihydro-5H-imidazo[2,1-b][1,3]oxazine], the MIC amounted to 3 ng/mL (≈ 5.45 nM).

Consider `COC1(c2ccc(C(F)(F)F)cc2)CCN(c2ccc(OC[C@H]3CCn4cc([N+](=O)[O-])nc4O3)cc2)CC1` [Example 471, (R)-7-{4-[4-methoxy-4-(4-trifluoromethylphenyl)piperidin-1-yl]phenoxymethyl}-2-nitro-6,7-dihydro-5H-imidazo[2,1-b][1,3]oxazine], for which the MIC is 12 ng/mL (≈ 22.5 nM).

Regarding `CC(C)(c1ccc(OCc2ccc(C(F)(F)F)cc2)cc1)N1CCN(c2ccc(OC[C@H]3CCn4cc([N+](=O)[O-])nc4O3)cc2)CC1` [Example 490, (R)-7-[4-(4-{1-methyl-1-[4-(4-trifluoromethylbenzyloxy)phenyl]ethyl}piperazin-1-yl)phenoxymethyl]-2-nitro-6,7-dihydro-5H-imidazo[2,1-b][1,3]oxazine], the MIC was determined as 0.8 ng/mL (≈ 1.23 nM).

A further experiment deals with Mycobacterium tuberculosis (M. tuberculosis H37Rv). Put plainly: Antimicrobial Assay (Agar Plate Dilution Method), M. tuberculosis H37Rv. Format: cell-based. The conditions noted are these: 336 h, 7H11 agar medium, cultured at 37° C. for 14 days, read-out: minimum inhibitory concentration.
Regarding `O=[N+]([O-])c1cn2c(n1)O[C@@H](COc1ccc(N3CCC(Cc4ccc(Oc5ccc(OC(F)(F)F)cc5)cc4)CC3)cc1)CC2` [Example 228, (R)-2-nitro-7-(4-{4-[4-(4-trifluoromethoxyphenoxy)benzyl]piperidin-1-yl}phenoxymethyl)-6,7-dihydro-5H-imidazo[2,1-b][1,3]oxazine], the MIC is no more than 0.4 ng/mL.
